This is an account of results in patent US8609087B2, “Compounds and methods for identifying compounds which inhibit a new class of aspartyl proteases” (priority 1999, dated 2013).

Where “and” joins values, the source holds several entries; their conditions need not be identical. Identical values can stand only once. Entries after “also recorded” stand apart in the source; their conditions may differ. Square brackets hold non-standard residues; d marks the D form. Peptide text beside a SMILES is read from it. * marks the point of attachment. Sta = CC(C)C[C@H](N)[C@@H](O)CC(=O)O; Isovaleryl = CC(C)CC(=O)*; Nle = CCCC[C@H](N)C(=O)O

For the test, the target named is TcpJ type 4 prepilin peptidase (TFPP) (Vibrio cholerae serotype O1, UniProt A5F385, P151Q/Q149P/S169T). The format is biochemical.

Take `O=S(=O)(F)Cc1ccccc1` [PMSF]: the “% Cleavage” value is 98% and 68%; the “Effect on TcpJ peptidase activity (in words)” value (from here on “Effect”) was “partial effects”.

Take `CCCC[C@@H](C=O)NC(=O)[C@H](CC(C)C)NC(=O)[C@H](CC(C)C)NC(C)=O` [Calpain inhibitor I] (Ac-Leu-Leu-[Nle]-aldehyde): the “% Cleavage” value amounted to 87%.

For Aprotinin, the “% Cleavage” value is listed as 100%.

In the case of `CCN1C(=O)C=CC1=O` [NEM], the “% Cleavage” value was found to be 30% and the “Effect” value is given as “partial effects”.

For `CC(C)C[C@H](NC(=O)[C@@H](O)[C@H](N)Cc1ccccc1)C(=O)O` [Bestatin], the “% Cleavage” value is reported as 81%.

For the molecule `CC(=O)N[C@@H](CC(C)C)C(=O)N[C@@H](CC(C)C)C(=O)N[C@H](C=O)CCCNC(=N)N` [Leupeptin], the “% Cleavage” value turned out to be 85%.

Consider `CC(C)C[C@H](NP(=O)(O)O[C@@H]1O[C@@H](C)[C@H](O)[C@@H](O)[C@H]1O)C(=O)N[C@@H](Cc1c[nH]c2ccccc12)C(=O)O` [Phosphoramidon], for which the “% Cleavage” value was found to be 89%.

Consider `O=c1oc(Cl)c(Cl)c2ccccc12` [3,4-DCI], for which the “% Cleavage” value is 89% and 54%.

Take `Cl.NCCc1ccc(S(=O)(=O)F)cc1` [Pefabloc SC]: the “% Cleavage” value was 62% and 50%; the “Effect” value is “partial effects”.

As for `CC(C)CC(=O)N[C@H](C(=O)N[C@H](C(=O)N[C@@H](CC(C)C)[C@@H](O)CC(=O)N[C@@H](C)C(=O)N[C@@H](CC(C)C)[C@@H](O)CC(=O)O)C(C)C)C(C)C` [Pepstatin] (Isovaleryl-VV[Sta]A[Sta]-OH), the “% Cleavage” value is 95% and 92% and 74%; the “Effect” value was “complete insensitivity; also recorded: completely resistant”.
